Tests used:
Human LDHA = Human LDHA (Homo sapiens (Human), UniProt P00338); experiment: human LDHA primary biochemical assay; conditions: biochemical LDHA inhibitory activity, assay of Example 1; activity level classes defined in nM
Procedure, shortened: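 Human LDHA at 2 nM with 0.06 mM NADH and 0.2 mM sodium pyruvate in 200 mM Tris HCl pH 7.4, 100 μM EDTA, 0.01% TWEEN-20 (final). NADH consumption coupled to resazurin/diaphorase (0.037 mM; 0.133 mg/mL); inhibition read by fluorescence.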

MiaPaCa2 cells = experiment: cell-based HT lactate assay by colorimetric/fluorometric detection (cellular inhibition of lactate production); conditions: Homo sapiens, MIA PaCa-2, assay of Example 6
Procedure, shortened: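 Miniaturised colorimetric/fluorometric lactate kit assay, about 3.5 h total, measuring cellular lactate production. MiaPaCa2 seeded at 500 cells/well, a density chosen so lactate falls near 90% of the standard curve range.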

IC50 (Human LDHA)	IC50 (MiaPaCa2 cells)	SMILES
< 100 nM	< 1 µM	Cc1ccc(C2CC2c2cccc(-c3nn(-c4nc(C(=O)O)cs4)c(CC4CC4)c3Cc3ccc(S(N)(=O)=O)c(F)c3)c2)s1 (stereo not shown) [Compound 130, 2-(5-(cyclopropylmethyl)-4-(3-fluoro-4-sulfamoylbenzyl)-3-(3-(2-(5-methylthiophen-2-yl)cyclopropyl)phenyl)-1H-pyrazol-1-yl)thiazole-4-carboxylic acid]
100 to 1000 nM	< 1 µM	NS(=O)(=O)c1ccc(Cc2c(-c3cccc(C#Cc4ccc(C5CC5)s4)c3)nn(-c3nc(C(=O)O)cs3)c2CC2CC2)cc1F [Compound 117, 2-(5-(cyclopropylmethyl)-3-(3-((5-cyclopropylthiophen-2-yl)ethynyl)phenyl)-4-(3-fluoro-4-sulfamoylbenzyl)-1H-pyrazol-1-yl)thiazole-4-carboxylic acid]
1000 to 57000 nM	> 57 µM	Cc1ccc(C#Cc2cccc(-c3nn(-c4nc(C(=O)NC#N)cs4)c(CC4CC4)c3Cc3ccc(S(N)(=O)=O)c(F)c3)c2)s1 [Compound 179, N-cyano-2-(5-(cyclopropylmethyl)-4-(3-fluoro-4-sulfamoylbenzyl)-3-(3-((5-methylthiophen-2-yl)ethynyl)phenyl)-1H-pyrazol-1-yl)thiazole-4-carboxamide]
100 to 1000 nM	< 1 µM	CC(C)(C)c1ccc(C#Cc2cc(-c3nn(-c4nc(C(=O)O)cs4)c(CC4CC4)c3Cc3ccc(S(N)(=O)=O)c(F)c3)ccc2F)s1 [Compound 110, 2-(3-(3-((5-(tert-butyl)thiophen-2-yl)ethynyl)-4-fluorophenyl)-5-(cyclopropylmethyl)-4-(3-fluoro-4-sulfamoylbenzyl)-1H-pyrazol-1-yl)thiazole-4-carboxylic acid]
< 100 nM	< 1 µM	NS(=O)(=O)c1ccc(Cc2c(-c3ccc(F)c(-c4cccc(Cl)c4)c3)nn(-c3nc(C(=O)O)cs3)c2CC2CC2)cc1F [Compound 149, 2-(3-(3′-chloro-6-fluoro-[1,1′-biphenyl]-3-yl)-5-(cyclopropylmethyl)-4-(3-fluoro-4-sulfamoylbenzyl)-1H-pyrazol-1-yl)thiazole-4-carboxylic acid]
< 100 nM	< 1 µM	Cc1ccsc1C#Cc1cccc(-c2nn(-c3nc(C(=O)O)cs3)c(CC3CC3)c2Cc2ccc(S(N)(=O)=O)c(F)c2)c1 [Compound 120, 2-(5-(cyclopropylmethyl)-4-(3-fluoro-4-sulfamoylbenzyl)-3-(3-((3-methylthiophen-2-yl)ethynyl)phenyl)-1H-pyrazol-1-yl) thiazole-4-carboxylic acid]
< 100 nM	< 1 µM	COc1cc(OC)cc(-c2cc(-c3nn(-c4nc(C(=O)O)cs4)c(CC4CC4)c3Cc3ccc(S(N)(=O)=O)c(F)c3)ccc2F)c1 [Compound 153, 2-(5-(cyclopropylmethyl)-3-(6-fluoro-3′,5′-dimethoxy-[1,1′-biphenyl]-3-yl)-4-(3-fluoro-4-sulfamoylbenzyl)-1H-pyrazol-1-yl)thiazole-4-carboxylic acid]
< 100 nM	< 1 µM	Cc1ccc(-c2cc(-c3nn(-c4nc(C(=O)O)cs4)c(CC4CC4)c3Cc3ccc(S(N)(=O)=O)c(F)c3)ccc2F)cc1F [Compound 137, 2-(5-(cyclopropylmethyl)-3-(3′,6-difluoro-4′-methyl-[1,1′-biphenyl]-3-yl)-4-(3-fluoro-4-sulfamoylbenzyl)-1H-pyrazol-1-yl)thiazole-4-carboxylic acid]
< 100 nM	< 1 µM	CC1CCCC=C1c1cc(-c2nn(-c3nc(C(=O)O)cs3)c(CC3CC3)c2Cc2ccc(S(N)(=O)=O)c(F)c2)ccc1F (stereo not shown) [Compound 103, 2-(5-(cyclopropylmethyl)-3-(6-fluoro-2′-methyl-2′,3′,4′,5′-tetrahydro-[1,1′-biphenyl]-3-yl)-4-(3-fluoro-4-sulfamoylbenzyl)-1H-pyrazol-1-yl)thiazole-4-carboxylic acid]
< 100 nM	< 1 µM	Cc1cc(C)c(C#Cc2cccc(-c3nn(-c4nc(C(=O)O)cs4)c(CC4CC4)c3Cc3ccc(S(N)(=O)=O)c(F)c3)c2)s1 [Compound 125, 2-(5-(cyclopropylmethyl)-3-(3-((3,5-dimethylthiophen-2-yl)ethynyl)phenyl)-4-(3-fluoro-4-sulfamoylbenzyl)-1H-pyrazol-1-yl) thiazole-4-carboxylic acid]
< 100 nM	< 1 µM	Cc1ccc(C#Cc2cc(-c3nn(-c4nc(C(=O)O)cs4)c(CCC4CC4)c3Cc3ccc(S(N)(=O)=O)c(F)c3)ccc2F)s1 [Compound 113, 2-(5-(2-cyclopropylethyl)-3-(4-fluoro-3-((5-methylthiophen-2-yl)ethynyl)phenyl)-4-(3-fluoro-4-sulfamoylbenzyl)-1H-pyrazol-1-yl)thiazole-4-carboxylic acid]
< 100 nM	< 1 µM	NS(=O)(=O)c1ccc(Cc2c(-c3ccc(F)c(C4=CCCCC4)c3)nn(-c3nc(C(=O)O)cs3)c2CC2CC2)cc1F [Compound 146, 2-(5-(cyclopropylmethyl)-3-(6-fluoro-2′,3′,4′,5′-tetrahydro-[1,1′-biphenyl]-3-yl)-4-(3-fluoro-4-sulfamoylbenzyl)-1H-pyrazol-1-yl)thiazole-4-carboxylic acid]
< 100 nM	< 1 µM	NS(=O)(=O)c1ccc(Cc2c(-c3ccc(F)c(C4=CCC5(CC4)CC5)c3)nn(-c3nc(C(=O)O)cs3)c2CC2CC2)cc1F [Compound 108, 2-(5-(cyclopropylmethyl)-3-(4-fluoro-3-(spiro[2.5]oct-5-en-6-yl)phenyl)-4-(3-fluoro-4-sulfamoylbenzyl)-1H-pyrazol-1-yl)thiazole-4-carboxylic acid]
100 to 1000 nM	< 1 µM	CC(C)c1ccc(C#Cc2cccc(-c3nn(-c4nc(C(=O)O)cs4)c(CC4CC4)c3Cc3ccc(S(N)(=O)=O)c(F)c3)c2)s1 [Compound 127, 2-(5-(cyclopropylmethyl)-4-(3-fluoro-4-sulfamoylbenzyl)-3-(3-((5-isopropylthiophen-2-yl)ethynyl)phenyl)-1H-pyrazol-1-yl)thiazole-4-carboxylic acid]
< 100 nM	< 1 µM	CC1(C)CC=C(c2cc(-c3nn(-c4nc(C(=O)O)cs4)c(CC4CC4)c3Cc3ccc(S(N)(=O)=O)c(F)c3)ccc2F)CC1 [Compound 106, 2-(5-(cyclopropylmethyl)-3-(6-fluoro-4′,4′-dimethyl-2′,3′,4′,5′-tetrahydro-[1,1′-biphenyl]-3-yl)-4-(3-fluoro-4-sulfamoylbenzyl)-1H-pyrazol-1-yl) thiazole-4-carboxylic acid]
< 100 nM	< 1 µM	NS(=O)(=O)c1ccc(Cc2c(-c3ccc(F)c(C4=Cc5ccccc5C4)c3)nn(-c3nc(C(=O)O)cs3)c2CC2CC2)cc1F [Compound 105, 2-(5-(cyclopropylmethyl)-3-(4-fluoro-3-(1H-inden-2-yl)phenyl)-4-(3-fluoro-4-sulfamoylbenzyl)-1H-pyrazol-1-yl)thiazole-4-carboxylic acid]
< 100 nM	< 1 µM	NS(=O)(=O)c1ccc(Cc2c(-c3ccc(F)c(-c4ccc5c(c4)CCC5)c3)nn(-c3nc(C(=O)O)cs3)c2CC2CC2)cc1F [Compound 155, 2-(5-(cyclopropylmethyl)-3-(3-(2,3-dihydro-1H-inden-5-yl)-4-fluorophenyl)-4-(3-fluoro-4-sulfamoylbenzyl)-1H-pyrazol-1-yl)thiazole-4-carboxylic acid]
< 100 nM	< 1 µM	NS(=O)(=O)c1ccc(Cc2c(-c3cccc(C#Cc4ccc(C(F)F)s4)c3)nn(-c3nc(C(=O)O)cs3)c2CC2CC2)cc1F [Compound 121, 2-(5-(cyclopropylmethyl)-3-(3-((5-(difluoromethyl)thiophen-2-yl)ethynyl)phenyl)-4-(3-fluoro-4-sulfamoylbenzyl)-1H-pyrazol-1-yl)thiazole-4-carboxylic acid]
< 100 nM	> 57 µM	NS(=O)(=O)c1ccc(Cc2c(-c3cccc(-c4cc(F)cc(F)c4)c3)nn(-c3nc(C(=O)O)cs3)c2CC2CC2)cc1F [Compound 177, 2-(5-(cyclopropylmethyl)-3-(3′,5′-difluoro-[1,1′-biphenyl]-3-yl)-4-(3-fluoro-4-sulfamoylbenzyl)-1H-pyrazol-1-yl)thiazole-4-carboxylic acid]

SMILES	IC50 (Human LDHA)	IC50 (MiaPaCa2 cells)
Cc1ccc(C#Cc2cccc(-c3nn(-c4nc(C(=O)O)cs4)c(CC4CC4)c3Cc3ccc(S(N)(=O)=O)c(F)c3)c2)s1 [Compound 112, 2-(5-(cyclopropylmethyl)-4-(3-fluoro-4-sulfamoylbenzyl)-3-(3-((5-methylthiophen-2-yl)ethynyl)phenyl)-1H-pyrazol-1-yl)thiazole-4-carboxylic acid]	< 100 nM	< 1 µM

— US10954228B2 (NATIONAL INSTITUTES OF HEALTH, UNITED STATES DEPARTMENT OF …, priority 2016, dated 2021)
